{"source": "patent US20250263370A1", "about": "(Tay Therapeutics Limited, priority 2022, published 2025)", "system": "collagen-induced arthritis", "test": "Collagen-induced arthritis (CIA) model in rats: body weight, paw volume, clinical scores, clinical observations; for Average detailed clinical score, left hind limb: key of the grades not given here; for Average detailed clinical score, right hind limb: key of the grades not given here; for Detailed Clinical Scores, left forelimb: key of the grades not given here; for Detailed Clinical Scores, left hind limb: key of the grades not given here; for Detailed Clinical Scores, right forelimb: key of the grades not given here; for Detailed Clinical Scores, right hind limb: key of the grades not given here; for Detailed Clinical Scores, score: key of the grades not given here; for Detailed Clinical Scores: left forelimb: key of the grades not given here; for Detailed Clinical Scores: left hind limb: key of the grades not given here; for Detailed Clinical Scores: right forelimb: key of the grades not given here; for Detailed Clinical Scores: right hind limb: key of the grades not given here; for Detailed Clinical Scores: score: key of the grades not given here; for Mean overall clinical score ± SD: key of the grades not given here; for overall clinical score: key of the grades not given here", "conditions": "for Mean animal paw volume ± SD: group mean; for Animal paw volume percent change: individual animals; for Average detailed clinical score, left forelimb / Average detailed clinical score, left hind limb / Average detailed clinical score, right forelimb / Average detailed clinical score, right hind limb / Average detailed clinical score, score / Mean overall clinical score ± SD / Detailed Clinical Scores, left forelimb / Detailed Clinical Scores, left hind limb / Detailed Clinical Scores, right forelimb / Detailed Clinical Scores, right hind limb / Detailed Clinical Scores, score / Overall clinical score / Detailed Clinical Scores: left forelimb / Detailed Clinical Scores: left hind limb / Detailed Clinical Scores: right forelimb / Detailed Clinical Scores: right hind limb / Detailed Clinical Scores: score: CIA rats; for Detailed Clinical Scores, left forelimb / Detailed Clinical Scores, left hind limb / Detailed Clinical Scores, right forelimb / Detailed Clinical Scores, right hind limb / Detailed Clinical Scores, score / Detailed Clinical Scores: left forelimb / Detailed Clinical Scores: left hind limb / Detailed Clinical Scores: right forelimb / Detailed Clinical Scores: right hind limb / Detailed Clinical Scores: score: individual animals ID 1-8; for Overall clinical score: individual animals #1-8", "note": "“And” between values parts separate entries of the source, which are not always exact repeats. Equal entries are not always repeated."}
{"smiles": "CNC(=O)c1cc(C(=O)NC2CC2)cn(Cc2ccccc2)c1=O", "note": "[GSK620]", "values": [{"measurement": "Mean animal paw volume ± SD", "setting": "Day 13, L paw", "result": 1.38, "unit": "mL"}, {"measurement": "Animal paw volume percent change", "setting": "Day 13, L paw", "result": "5.12% and 1.52% and 12.65% and −0.73% and 4.01% and 2.25% and 4.56% and 3.33%"}, {"measurement": "Mean animal paw volume ± SD", "setting": "Day 13, R paw", "result": 1.41, "unit": "mL"}, {"measurement": "Animal paw volume percent change", "setting": "Day 13, R paw", "result": "9.84% and 3.07% and 10.98% and 14.65% and 3.66% and 3.02% and 6.04% and 3.75%"}, {"measurement": "Average detailed clinical score, left forelimb", "setting": "Day 13", "result": 0.00}, {"measurement": "Average detailed clinical score, left hind limb", "setting": "Day 13", "result": 0.00}, {"measurement": "Average detailed clinical score, right forelimb", "setting": "Day 13", "result": 0.00}, {"measurement": "Average detailed clinical score, right hind limb", "setting": "Day 13", "result": 0.13}, {"measurement": "Average detailed clinical score, score", "setting": "Day 13", "result": 0.13}, {"measurement": "Mean overall clinical score ± SD", "setting": "Day 13", "result": "0 ± 0"}, {"measurement": "Detailed Clinical Scores, left forelimb", "setting": "Day 13", "result": 0}, {"measurement": "Detailed Clinical Scores, left hind limb", "setting": "Day 13", "result": 0}, {"measurement": "Detailed Clinical Scores, right forelimb", "setting": "Day 13", "result": 0}, {"measurement": "Detailed Clinical Scores, right hind limb", "setting": "Day 13", "result": "0 (7×) and 1"}, {"measurement": "Detailed Clinical Scores, score", "setting": "Day 13", "result": "0 (7×) and 1"}, {"measurement": "Overall clinical score", "setting": "Day 13", "result": "0 (7×) and 1"}, {"measurement": "Mean animal paw volume ± SD", "setting": "Day 14, L paw", "result": 1.55, "unit": "mL"}, {"measurement": "Animal paw volume percent change", "setting": "Day 14, L paw", "result": "21.65% and 34.98% and 13.44% and −0.37% and 4.01% and 4.87% and 31.18% and 27.78%"}, {"measurement": "Mean animal paw volume ± SD", "setting": "Day 14, R paw", "result": 1.67, "unit": "mL"}, {"measurement": "Animal paw volume percent change", "setting": "Day 14, R paw", "result": "37.01% and 14.18% and 12.55% and 54.58% and 4.40% and 3.77% and 49.81% and 36.70%"}, {"measurement": "Average detailed clinical score, left forelimb", "setting": "Day 14", "result": 0.00}, {"measurement": "Average detailed clinical score, left hind limb", "setting": "Day 14", "result": 0.88}, {"measurement": "Average detailed clinical score, right forelimb", "setting": "Day 14", "result": 0.00}, {"measurement": "Average detailed clinical score, right hind limb", "setting": "Day 14", "result": 1.13}, {"measurement": "Average detailed clinical score, score", "setting": "Day 14", "result": 2.00}, {"measurement": "Mean overall clinical score ± SD", "setting": "Day 14", "result": "2 ± 2"}, {"measurement": "Detailed Clinical Scores, left forelimb", "setting": "Day 14", "result": 0}, {"measurement": "Detailed Clinical Scores, left hind limb", "setting": "Day 14", "result": "1 and 2 (3×) and 0 (4×)"}, {"measurement": "Detailed Clinical Scores, right forelimb", "setting": "Day 14", "result": 0}, {"measurement": "Detailed Clinical Scores, right hind limb", "setting": "Day 14", "result": "2 (3×) and 0 (4×) and 3"}, {"measurement": "Detailed Clinical Scores, score", "setting": "Day 14", "result": "3 (2×) and 2 and 0 (3×) and 4 (2×)"}, {"measurement": "Overall clinical score", "setting": "Day 14", "result": "3 (2×) and 2 and 0 (3×) and 4 (2×)"}, {"measurement": "Mean animal paw volume ± SD", "setting": "Day 15, L paw", "result": 1.74, "unit": "mL"}, {"measurement": "Animal paw volume percent change", "setting": "Day 15, L paw", "result": "60.24% and 53.99% and 9.49%"}, {"measurement": "Mean animal paw volume ± SD", "setting": "Day 15, R paw", "result": 1.86, "unit": "mL"}, {"measurement": "Animal paw volume percent change", "setting": "Day 15, R paw", "result": "61.02% and 59.00% and 7.84%"}, {"measurement": "Average detailed clinical score, left forelimb", "setting": "Day 15", "result": 0.00}, {"measurement": "Average detailed clinical score, left hind limb", "setting": "Day 15", "result": 1.63}, {"measurement": "Average detailed clinical score, right forelimb", "setting": "Day 15", "result": 0.00}, {"measurement": "Average detailed clinical score, right hind limb", "setting": "Day 15", "result": 2.00}, {"measurement": "Average detailed clinical score, score", "setting": "Day 15", "result": 3.63}, {"measurement": "Mean overall clinical score ± SD", "setting": "Day 15", "result": "4 ± 2"}, {"measurement": "Detailed Clinical Scores: left forelimb", "setting": "Day 15", "result": 0}, {"measurement": "Detailed Clinical Scores: left hind limb", "setting": "Day 15", "result": "3 (3×) and 0 (2×) and 1 (2×) and 2"}, {"measurement": "Detailed Clinical Scores: right forelimb", "setting": "Day 15", "result": 0}, {"measurement": "Detailed Clinical Scores: right hind limb", "setting": "Day 15", "result": "3 (3×) and 0 (2×) and 4 and 1 and 2"}, {"measurement": "Detailed Clinical Scores: score", "setting": "Day 15", "result": "6 (3×) and 0 and 4 (2×) and 1 and 2"}, {"measurement": "Overall clinical score", "setting": "Day 15", "result": "6 (3×) and 0 and 4 (2×) and 1 and 2"}, {"measurement": "Mean animal paw volume ± SD", "setting": "Day 18, L paw", "result": 2.48, "unit": "mL"}, {"measurement": "Animal paw volume percent change", "setting": "Day 18, L paw", "result": "113.78% and 92.78% and 88.54%"}, {"measurement": "Mean animal paw volume ± SD", "setting": "Day 18, R paw", "result": 2.35, "unit": "mL"}, {"measurement": "Animal paw volume percent change", "setting": "Day 18, R paw", "result": "105.91% and 87.36% and 88.63%"}, {"measurement": "Average detailed clinical score, left forelimb", "setting": "Day 18", "result": 0.00}, {"measurement": "Average detailed clinical score, left hind limb", "setting": "Day 18", "result": 3.88}, {"measurement": "Average detailed clinical score, right forelimb", "setting": "Day 18", "result": 0.00}, {"measurement": "Average detailed clinical score, right hind limb", "setting": "Day 18", "result": 3.38}, {"measurement": "Average detailed clinical score, score", "setting": "Day 18", "result": 7.25}, {"measurement": "Mean overall clinical score ± SD", "setting": "Day 18", "result": "7 ± 1"}, {"measurement": "Detailed Clinical Scores: left forelimb", "setting": "Day 18", "result": 0}, {"measurement": "Detailed Clinical Scores: left hind limb", "setting": "Day 18", "result": "4 (7×) and 3"}, {"measurement": "Detailed Clinical Scores: right forelimb", "setting": "Day 18", "result": 0}, {"measurement": "Detailed Clinical Scores: right hind limb", "setting": "Day 18", "result": "4 (6×) and 0 and 3"}, {"measurement": "Detailed Clinical Scores: score", "setting": "Day 18", "result": "8 (6×) and 4 and 6"}, {"measurement": "Overall clinical score", "setting": "Day 18", "result": "8 (6×) and 4 and 6"}, {"measurement": "Mean animal paw volume ± SD", "setting": "Day 19, L paw", "result": 2.54, "unit": "mL"}, {"measurement": "Animal paw volume percent change", "setting": "Day 19, L paw", "result": "112.99% and 92.78%"}, {"measurement": "Mean animal paw volume ± SD", "setting": "Day 19, R paw", "result": 2.36, "unit": "mL"}, {"measurement": "Animal paw volume percent change", "setting": "Day 19, R paw", "result": "103.54% and 88.12%"}, {"measurement": "Average detailed clinical score, left forelimb", "setting": "Day 19", "result": 0.75}, {"measurement": "Average detailed clinical score, left hind limb", "setting": "Day 19", "result": 3.63}, {"measurement": "Average detailed clinical score, right forelimb", "setting": "Day 19", "result": 0.25}, {"measurement": "Average detailed clinical score, right hind limb", "setting": "Day 19", "result": 3.00}, {"measurement": "Average detailed clinical score, score", "setting": "Day 19", "result": 7.63}, {"measurement": "Mean overall clinical score ± SD", "setting": "Day 19", "result": "8 ± 2"}, {"measurement": "Detailed Clinical Scores: left forelimb", "setting": "Day 19", "result": "1 (6×) and 0 (2×)"}, {"measurement": "Detailed Clinical Scores: left hind limb", "setting": "Day 19", "result": "4 (5×) and 3 (3×)"}, {"measurement": "Detailed Clinical Scores: right forelimb", "setting": "Day 19", "result": "0 (6×) and 1 (2×)"}, {"measurement": "Detailed Clinical Scores: right hind limb", "setting": "Day 19", "result": "4 (3×) and 3 (4×) and 0"}, {"measurement": "Detailed Clinical Scores: score", "setting": "Day 19", "result": "9 (2×) and 10 and 6 and 5 and 7 (2×) and 8"}, {"measurement": "Overall clinical score", "setting": "Day 19", "result": "9 (2×) and 10 and 6 and 5 and 7 (2×) and 8"}, {"measurement": "Mean animal paw volume ± SD", "setting": "Day 21, L paw", "result": 2.53, "unit": "mL"}, {"measurement": "Animal paw volume percent change", "setting": "Day 21, L paw", "result": "112.99% and 90.49%"}, {"measurement": "Mean animal paw volume ± SD", "setting": "Day 21, R paw", "result": 2.35, "unit": "mL"}, {"measurement": "Animal paw volume percent change", "setting": "Day 21, R paw", "result": "106.69% and 86.59%"}, {"measurement": "Average detailed clinical score, left forelimb", "setting": "Day 21", "result": 0.88}, {"measurement": "Average detailed clinical score, left hind limb", "setting": "Day 21", "result": 3.63}, {"measurement": "Average detailed clinical score, right forelimb", "setting": "Day 21", "result": 0.25}, {"measurement": "Average detailed clinical score, right hind limb", "setting": "Day 21", "result": 3.13}, {"measurement": "Average detailed clinical score, score", "setting": "Day 21", "result": 7.88}, {"measurement": "Mean overall clinical score ± SD", "setting": "Day 21", "result": "8 ± 2"}, {"measurement": "Detailed Clinical Scores: left forelimb", "setting": "Day 21", "result": "1 (5×) and 2 and 0 (2×)"}, {"measurement": "Detailed Clinical Scores: left hind limb", "setting": "Day 21", "result": "4 (5×) and 3 (3×)"}, {"measurement": "Detailed Clinical Scores: right forelimb", "setting": "Day 21", "result": "0 (6×) and 1 (2×)"}, {"measurement": "Detailed Clinical Scores: right hind limb", "setting": "Day 21", "result": "4 (3×) and 3 (4×) and 1"}, {"measurement": "Detailed Clinical Scores: score", "setting": "Day 21", "result": "9 (2×) and 11 and 6 (2×) and 7 (2×) and 8"}, {"measurement": "Overall clinical score", "setting": "Day 21", "result": "9 (2×) and 11 and 6 (2×) and 7 (2×) and 8"}]}
